Measurements as given in patent publication US12239624B2, “Glyceryl tris (beta-hydroxybutyrate) and neuronal transient ischemic attacks” (NeuroEnergy Ventures, Inc., priority 2019, dated 2025).

Settings: in vivo

CC(O)CC(=O)OCC(COC(=O)CC(C)O)OC(=O)CC(C)O (stereo not drawn) [GTβHB, Glyceryl Tris (Beta-HydroxyButyrate)]
time for beta-hydroxybutyrate and acetoacetate from GTβHB to return to pre-administration levels: ≤ 24 h
period within which GTβHB is cleared by the body (po): ≤ 24 h
